{"source": "patent US9051351B2", "about": "“Hepatocyte growth factor mimics as therapeutic agents” (Washington State University, priority 2011, dated 2015)", "key": {"c-Met receptor": {"tested_on": "c-Met receptor", "assay": "c-Met phosphorylation in acute adult hippocampal slices", "assay_type": "cell-based, rat", "details": "30 minutes", "from_the_text": "Adult Sprague-Dawley rats (250 g+) obtained from Harlan Laboratories (Ca, USA) were anesthetized with isofluorane (Vet One™, MWI, Meridian, Id., USA) and decapitated. The brain was rapidly removed and placed into ice-chilled artificial cerebrospinal fluid (aCSF) for approximately 30 s. Both hemispheres were separated by a mid-saggital cut and both hippocampi removed. Slices were sectioned cross- and length-wise (400 μm) to ensure penetrability of the drug, using a Mcllwain tissue chopper (Brinkmann, Gomshall, UK) and transferred to a gassed (95% O2/5% CO2) incubation chamber containing aCSF for 90 minutes at room temperature. Slices were transferred to fresh tubes, aCSF was removed by careful suctioning and replaced with aCSF containing vehicle (aCSF+aCSF), 100 ng/ml with carrier free adult recombinant Hepatocyte Growth Factor (HGF) (R and D Systems, MN, USA) in aCSF, 10^−10 M Hinge (Harding lab), […], 10^−10 M Dihexa (Harding lab) in aCSF, 10^−12 M Dihexa in aCSF or 50 ng/ml HGF+10^−12 M Dihexa in aCSF for 30 minutes at 37° C. with gentle rocking. aCSF was removed and the slices were lysed using RIPA buffer (Upstate/Milipore, Billerica, Mass.) and inhibitor Cocktails I and II (Sigma, St. Louis, Mo.), sonicated on ice and clarified by centrifugation for 30 minutes, 13,000 rpm at 4° C. The supernatant was removed from the pellet and stored at −80° C. or processed immediately for gel electrophoresis.\nProtein concentration of the samples was quantified using the BCA method (Pierce, Rockford, Ill.) following the manufacturers protocol. Samples were added to SDS-PAGE buffer and boiled for 10 min. before loading onto a 4-12% Bis-Tris pre-cast gel (Invitrogen, Carlsbad, Calif.) for electrophoresis. Proteins were transferred onto PVDF membranes (Bio Rad, Hercules, Calif.) and blocked with AquaBlock™ (New England Biolabs, Ipswich, Mass.) for 1 hour at room temperature (RT). Primary antibody incubation was done in AquaBlock™ with rabbit anti-Met and […] phospho-Met (Tyr1234/1235) (1:1000, Cell Signaling Technology, Danvers, Mass.) overnight at 4° C. Alternating washes were done with PBS and PBST. Secondary antibody (IRDye) (Rockland, Gilbertsville, Pa.) incubations were done in AquaBlock™ for one hour at RT. Blots were imaged using LI-COR Odyssey Infrared Imaging System (LI-COR Biosciences, Lincoln, Nebr.)."}, "[1]": {"assay": "Blood stability in heparinized rat blood", "assay_type": "in vitro ADME", "details": "rat", "protocol": "At the end of each incubation, 20 μL of […]"}, "[2]": {"assay": "Serum metabolism of peptides in rat serum", "assay_type": "in vitro ADME", "details": "male, Sprague Dawley, rat, rat serum", "protocol": "Four month old male Sprague Dawley rats were used as the blood source for the metabolism studies. Blood was collected from left/right jugular veins of the rats using sterile catheters. After a 30 minute incubation on ice, the blood was centrifuged at 1000 rpm for 15 min to separate the serum. Serum was then transferred to clean tubes and stored at −20° C. until use.\nExcept for dihexa all drug solutions were prepared in HPLC grade water at 5 mg/ml. Stock drugs were kept in powder form and stored at −20° C. Serum metabolism experimental procedure and analysis. Rat blood serum samples were pre-equilibrated at 37° C. and then 10 μL (50 μg) of each drug solution was added to 90 μL of rat serum in 1.5 mL Eppendorf tube maintained at 37° C. At specified time intervals, metabolism was terminated by precipitating proteins with the addition of 1 ml of a solution of acetonitrile (ACN) and acetic acid (9:1, v/v). The terminated reaction mixture was stored in refrigerator (5° C.) overnight and centrifuged (14,000 rpm) for 30 min to remove precipitated proteins. The separated supernatant was dried in vacuum concentrator. The dried samples were reconstituted using 200 μL HPLC mobile phase (10% v/v ACN in water), vortexed briefly, and subjected to HPLC separation and analysis. A serum blank experiment to detect any interfering peaks in the HPLC chromatogram was performed by in an identical manner except that no drug was added. Zero time values for each drug candidate were established by first treating the serum with ACN, processing the sample as described above, adding drug, and then performing HPLC analysis.\nThe degradation rate of drug was determined by measuring the decrease in area under curve (AUC) at the retention time of drug over time. The AUC obtained from the zero time experiment was considered to represent the “100%” drug concentration and was used to determine the decreased drug concentration at each specified time interval. The semi-logarithmic plot of drug concentration vs. time was generated to determine degradation kinetic constant (k) of the tested drug. The half-life of drug was (t1/2) was calculated by 0.693/k.\nAnalysis of samples was performed using an HPLC system. The system consisted of a communications bus module, pumps, and a photodiode array detector. Separation was achieved using a C18 (250 mm×4.6 mm id., 5 μm particle size) reverse phase column. The column temperature was set at 40° C. The mobile phase consisted of a mixture of ACN and water with 0.1% TFA and was degassed by ultrasonication. Samples were introduced by manual mode with an injection volume of 250 μL. The drug was eluted with a flow rate of 1 mL/min and detected by PDA detector at […] wavelengths of 215 and 280 nm."}}, "note": "Entries after “also recorded” stand apart in the source; their conditions may differ. Like-named read-outs stand apart in the source and are kept apart here. Where a SMILES comes first, the peptide text is derived from it. [ ]: non-standard residue; d: D form. The star is where a group is joined. Hexanoyl = CCCCCC(=O)*; Ahx = NCCCCCC(=O)O"}
{"compound": "CCCCCC(=O)N[C@@H](Cc1ccc(O)cc1)C(=O)N[C@H](C(=O)NCCCCCC(N)=O)[C@@H](C)CC", "note": "[Dihexa, N-hexanoic-Tyr-Ile-(6)-aminohexanoic amide] (Hexanoyl-Tyr-Ile-[Ahx]-NH2)", "values": [{"measurement": "c-Met phosphorylation vs vehicle (aCSF)", "setting": "c-Met receptor; saturating doses: HGF 100 ng/ml, Dihexa 10^−10 M", "value": "increased c-Met phosphorylation; also recorded: effectively augment c-Met phosphorylation"}, {"measurement": "c-Met phosphorylation vs vehicle (aCSF)", "setting": "c-Met receptor; sub-threshold doses: HGF 50 ng/ml, Dihexa 10^−12 M", "value": "not statistically different from control treated slices; also recorded: did not significantly increase c-Met receptor phosphorylation"}, {"measurement": "stable in the blood", "setting": "[1]", "value": "over 5 hours"}, {"measurement": "half-life at 0.5 mg/mL", "setting": "[2]; 37° C., Mean +/− SD, N = 3, read-out: Half-Life (min), serum stability", "value": 336, "unit": "min"}, {"measurement": "half-life at 0.5 mg/mL", "setting": "[2]; read-out: t1/2 in rat serum", "value": 330, "unit": "min"}]}
